Numbering of substitutions follows the chain as printed. Names may count otherwise.
Tests used:
NaDC1 [1] = biological target: T1, NaDC1 (Homo sapiens, UniProt Q13183, I550V); experiment: cryo-EM structure ([…] Å); assay type: binding; conditions: 400 μM ACA; allosteric site of TM2, L10, TM11, TM6a
T1 construct: gene SLC13A2; full length, homodimer; N-terminal FLAG purified from HEK293F (structures, natural variant I550V); GFP and FLAG tagged in HEK293T for currents
T1 sequence (Q13183 1-592 I550V): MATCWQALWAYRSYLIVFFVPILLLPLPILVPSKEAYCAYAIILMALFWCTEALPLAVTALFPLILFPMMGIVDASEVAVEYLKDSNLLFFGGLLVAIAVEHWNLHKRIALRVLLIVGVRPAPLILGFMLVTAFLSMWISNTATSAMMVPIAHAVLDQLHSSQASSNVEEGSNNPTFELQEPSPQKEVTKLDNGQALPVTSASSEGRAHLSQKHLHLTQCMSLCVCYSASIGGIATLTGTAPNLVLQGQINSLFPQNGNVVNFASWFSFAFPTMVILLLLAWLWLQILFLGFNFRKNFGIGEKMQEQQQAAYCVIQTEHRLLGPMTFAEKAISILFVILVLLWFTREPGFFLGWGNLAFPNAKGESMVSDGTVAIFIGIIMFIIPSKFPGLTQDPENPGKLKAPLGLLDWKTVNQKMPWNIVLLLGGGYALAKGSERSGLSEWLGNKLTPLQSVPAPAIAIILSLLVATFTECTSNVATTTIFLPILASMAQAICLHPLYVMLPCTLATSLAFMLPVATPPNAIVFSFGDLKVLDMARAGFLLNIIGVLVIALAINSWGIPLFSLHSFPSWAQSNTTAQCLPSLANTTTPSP

NaDC1 [2] = biological target: T2, NaDC1 (Homo sapiens, UniProt Q13183); experiment: whole-cell patch clamp, transfected HEK293T; assay type: cell-based; parameters: gene SLC13A2; full length, homodimer; GFP and FLAG tagged in HEK293T for currents; conditions: citrate-induced current; reversible on washout
T2 sequence (Q13183 1-592): T1 sequence (Q13183 1-592 I550V) with V550I

NaS1 = biological target: T3, NaS1 (Homo sapiens, UniProt Q9BZW2); experiment: cryo-EM structure (IN/IN […] Å, IN/OUT […] Å); assay type: binding; conditions: substrate site; Na+ bound at Na1 in IN/IN
T3 construct: gene SLC13A1; full length, N-terminal FLAG tag, HEK293F membranes, purified in GDN, homodimer
T3 sequence (Q9BZW2 1-595): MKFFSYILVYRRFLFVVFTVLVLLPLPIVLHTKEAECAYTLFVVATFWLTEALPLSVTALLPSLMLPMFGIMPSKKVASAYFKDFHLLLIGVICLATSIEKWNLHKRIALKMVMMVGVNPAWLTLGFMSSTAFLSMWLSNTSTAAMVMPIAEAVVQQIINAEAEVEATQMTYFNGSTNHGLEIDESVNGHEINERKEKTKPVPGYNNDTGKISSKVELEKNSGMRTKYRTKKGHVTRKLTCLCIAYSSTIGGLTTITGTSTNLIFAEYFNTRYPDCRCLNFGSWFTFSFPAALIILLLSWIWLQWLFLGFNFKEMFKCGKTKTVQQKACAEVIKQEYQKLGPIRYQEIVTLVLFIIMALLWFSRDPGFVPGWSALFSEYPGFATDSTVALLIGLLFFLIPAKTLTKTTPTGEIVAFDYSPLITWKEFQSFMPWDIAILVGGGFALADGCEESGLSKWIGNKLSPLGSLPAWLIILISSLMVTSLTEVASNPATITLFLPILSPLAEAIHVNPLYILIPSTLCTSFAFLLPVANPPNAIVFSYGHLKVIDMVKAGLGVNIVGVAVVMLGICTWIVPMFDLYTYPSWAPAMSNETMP

[3] = biological target: the molecule itself; experiment: cryo-EM structure; single-particle cryo-EM of purified NaS1 in 25 mM tris pH 8.0, 150 mM NaCl, 0.01% GDN; apo and sulfate-bound; IN/IN and IN/OUT dimers
[4] = biological target: the molecule itself; experiment: cryo-EM structure; single-particle cryo-EM of purified NaDC1 in 20 mM Hepes pH 7.4, 150 mM NaCl, 0.02% GDN; apo, with 10 mM sodium citrate, or with 400 uM ACA; OUT/OUT dimer

Molecule: CCCCCc1ccc(/C=C/C(=O)Nc2ccccc2C(=O)O)cc1 [ACA]
- cryo-EM structure (3.3 Å) (NaDC1 [1]): the cryo-EM structure of NaDC1 bound with ACA was solved
- whole-cell patch clamp, transfected HEK293T (NaDC1 [2]): A significant decrease in citrate-induced current was detected when ACA was added

Molecule: O=S(=O)(O)O [sulfate]
- cryo-EM structure (IN/IN 3.1 Å, IN/OUT 3.2 Å) (NaS1): there is obvious sulfate density around the classical substrate binding pocket of NaS1_sulfate_IN/IN

B1: human NaS1 (SLC13A1), sodium ion-sulfate cotransporter 1 (natural protein, UniProt Q9BZW2 1-595, looked up)
chain: T3 sequence (Q9BZW2 1-595)
notes: full-length human SLC13A1 (NaS1), NP_071889.2, UniProtKB Q9BZW2; No removal of the FLAG tag is described; the protein was captured on anti-FLAG resin and eluted with FLAG peptide; not shown: FLAG, N-terminal, kept
- binding result [3]: binds

B2: human NaDC1 (SLC13A2), sodium ion-dicarboxylate cotransporter 1, natural variant I550V (natural protein, UniProt Q13183-1 1-592, looked up)
chain: T1 sequence (Q13183 1-592 I550V)
notes: full-length human SLC13A2 (NaDC1), NP_003975.1, UniProtKB Q13183, with the natural variant I550V that was used to determine the structures; Homodimer in the cryo-EM structures (OUT/OUT; No removal of the FLAG tag is described; the protein was captured on anti-FLAG resin and eluted with FLAG peptide; also called NaDC1_apo; NaDC1_citrate; source: extracted in DDM/CHS, exchanged to GDN); not shown: …
- binding result [4]: binds
